How the values were obtained:
Type in all cases: cell-based, rat
PC12 cells [1] = assay: FACS cell-cycle distribution of on-chip synchronized cells; conditions: 2 mM thymidine 18 hrs
Procedure: (§1) A silicon-based gold electrode was first cleaned with freshly prepared piranha solution (1:3 mixture of 30% H2O2 and concentrated H2SO4) for 5 min and then rinsed thoroughly with double-distilled water. The electrode was then carefully polished by sonication in absolute alcohol and double-distilled water for 5 min. Finally, the electrode was electrochemically cleaned in 0.5 M H2SO4 until a stable cyclic voltammogram was obtained and then dried with purified nitrogen. After the pretreatment, a well ordered oligopeptide (RGD-MAP-C) was fabricated on the freshly cleaned gold electrode as reported in our previous work (15). For the electrochemical measurements, a 2 cm×1 cm×0.5 cm (width×length×height) cell chip chamber was fabricated by fixing a plastic chamber (Lab-Tek®, Thermo fisher scientific, USA) to the Au working electrode using PDMS (Polydimethylsiloxane). Afterward, rat pheochromocytoma (PC12) cells were seeded on the electrode at a density of 2×10^5 cells/chip and then immobilized via RGD-integrin interaction for 24 hrs in a standard cell culture environment. The cell-immobilized electrode was treated with 2 mM thymidine in culture medium (RPMI 1640) for 18 hrs, followed by an 8 hrs release (replaced by fresh medium), and then again with 2 mM thymidine for another 18 hrs to block cells in G1/S-phase (FIG. 1c). […]

phosphohistone (p-HH^3) = assay: Western blot of synchronized PC12 cells, G2/M-phase specific protein p-HH3; conditions: Western blot of G1/S- or G2/M-blocked PC12 cells (FIG. 3d)
Procedure: (§2) The cell-immobilized electrode was treated with 2 mM thymidine in culture medium (RPMI 1640) for 18 hrs, followed by an 8 hrs release (replaced by fresh medium), and then again with 2 mM thymidine for another 18 hrs to block cells in G1/S-phase (FIG. 1c). Similarly, another cell-immobilized electrode was treated initially with 2 mM thymidine as mentioned before for 18 hrs, followed by a 4 hrs release (replaced by fresh medium), and then with 100 ng/ml of nocodazole for another 10 h to block cells in G2/M-phase (FIG. 1c). Therefore, the working electrodes were prepared for electrochemical signal analysis of the cells in different phases of the cell cycle. Furthermore, for the time-dependent progression of G1/S-phase towards G2/M-phase, G1/S-blocked cells were released in fresh medium containing 10% FBS for several hours to perform electrochemical measurements. The synchronized PC12 cell pellet was solubilized for 15 min at 4° C. in lysis buffer. Lysates were centrifuged at 13,000 g for 30 min at 4° C. in order to remove insoluble material. The supernatant was then collected, and the protein concentration was determined using BCA protein assay reagent (Pierce Chemicals). […]

PC12 cells [2] = assay: Differential pulse voltammetry (DPV) of cells on Au/RGD-MAP-C cell chip; conditions: PC12 cells on Au electrode; double thymidine block; PBS 0.01 M pH 7.4; vs Ag/AgCl (FIG. 2b)
Procedure: as §1

cyclin B1 = assay: Western blot of synchronized PC12 cells, cyclin B1; conditions: Western blot of G1/S- or G2/M-blocked PC12 cells (FIG. 3d)
Procedure: as §2

| Structure (SMILES) | cells synchronized in G2/M-phase (PC12 cells [1]; 4 hrs release, 100 ng/ml nocodazole 10 h, FACS (FIG. 3c)) | p-HH^3 expression (phosphohistone (p-HH^3)) | cells fixed in G1/S-phase (PC12 cells [1]; 8 hrs release, FACS (FIG. 3b)) | DPV peak potential of G1/S-phase blocked cells (PC12 cells [2]) | cyclin B1 expression (cyclin B1) |
| --- | --- | --- | --- | --- | --- |
| COC(=O)Nc1nc2ccc(C(=O)c3cccs3)cc2[nH]1 [nocodazole] | ~72% | expressed | – | – | – |
| Cc1cn([C@H]2C[C@H](O)[C@@H](CO)O2)c(=O)[nH]c1=O [thymidine, Thymidine] | – | absent | Approximately 75% | +50 mV | expressed dominantly |

From US9945841B2, “Cell cycle measuring method based on an electrochemical method” (INDUSTRY-UNIVERSITY COOPERATION FOUNDATION SOGANG UNIVERSITY, priority 2011, dated 2018)
